Values of other authors, collected in patent US20110166946A1, “METHOD OF PROMOTING AND SELLING COFFEE” (NESTEC S.A., priority 2008, published 2011).

Experiments:
[1] = in vivo
[2] = preclinical models
[3] = after 50 μM chlorogenic acid intestinal perfusion, rat

Row | Structure (SMILES) | time of appearance in blood after ingestion [1] | time to reach baseline level after ingestion [1] | time of appearance of conjugated forms of CA in plasma after ingestion [2] | isoferulic acid detected in plasma [3]
1 | Oc1cc(O)c2c(c1)O[C@H](c1cc(O)c(O)c(O)c1)[C@H](O)C2 [EGC, (−)-Epigallocatechin] | ≤ 30 min | ≤ 12 h |  | 
2 | O=C(/C=C/c1ccc(O)c(O)c1)O[C@@H]1C[C@](O)(C(=O)O)C[C@@H](O)[C@H]1O [chlorogenic acid, 5-caffeoylquinic acid] |  |  | 30 min | 0.12 µM
